# Results: patent publication US20160297828A1, “SPIROCYCLIC COMPOUNDS CONTAINING SPIRO[INDOLYL-3,1'-PYRROLO[3,4-C]PYRROLE] CORE AND SULPHUR-CONTAINING AMINO ACID RESIDUES” (priority 2013, published 2016)
# “And” between values parts separate entries of the source, which are not always exact repeats. Equal values may be shown once. Marks after values point to notes of the source that are not given here.
# Legend:
# [1] = test system: rats with intracerebral hemorrhage; test: Lethality of rats with intracerebral hemorrhage of average severity; assay type: in vivo
# Description: The chosen model allows to reproduce clinical pattern of […] and is adequate for clinical study of potential neuroprotective agents.
# As comparators the following drugs were used: mexydol (“Mexydol” UC Pharmasoft, Russia), 100 mg/kg; citicoline (“Somazina” Ferrer International, SA, Spain), 250 mg/kg; aktovegin (“Aktovegin”, Nycomed, Austria), 16 mg/kg pyracetam (“Pyracetam” Darnitsa, Ukraine), 400 mg/kg. According to the latest clinical guidelines regarding the treatment of patients with CVA approved by the Ministry of Health of Ukraine (Order No. 602 dated 3 Aug. 2012), all these drugs are allowed to be included into schemes for intensive patients therapy with CVA as neuroprotective agents. They were used at recommended doses for preclinical studies (McGrow C. P. Experimental Cerebral Infarction Effects of Pentobarbital in Mongolian Gerbils/C. P. McGrow//Arch. Neurol.-1977.-Vol. 34, No. 6.-P. 334-336). Experimental therapy of acute cerebral ischemia with SI-86 compound and comparator started 1 hour after IUD once a day for 21 days. […] Reference drugs were injected intraperitoneally (ip). Rats of control pathology group were injected by autoblood and as therapy 0.9% NaCI solution was administered calculated for 2 ml/kg iv.
# Pseudo-operated rats were exposed to all interventions (anesthesia, craniotomy) excluding autoblood administration that leveled traumatic impact of experimental conditions.
# Evaluation of the ability of animals to learn and memorize of aversive stimulus was examined in the test of conditioned response of passive avoidance (CRPA). The technique is based on innate rat instinct to limited shadowy space. The study in rats was conducted in two-compartment unit consisted of two sections—light and dark. An animal was arranged into light compartment, fixing latency time for entering into the dark compartment, wherein rat received current irritation and ran in the light compartment. CRPA retention was tested every other day under latency time change of rat entering into the dark compartment. Also the number of animals was noted not fully entered the dark chamber. Cerebroprotective efficiency criteria of studied compounds were also animal death term (days) and their mortality rate (in %).
# Quantitative data were processed using statistical StatPlus 2009 processing. The statistical significance of differences was assessed by Fisher's angular transformation (lethality outcome), also parametric t Student criterion were used in case of normal distribution of variation series, nonparametric W White criterion—in its absence.
# [2] = test system: neuron-specific enolase (NSE); test: Neuron-specific enolase (NSE) activity in rats with intracerebral hemorrhage (ELISA); assay type: in vivo; conditions: for NSE activity (dynamics of neurodestructive changes): acute cerebral hemorrhage, n = 7; for enzyme activity decreased in relation to the control pathology group / efficiency in reducing NSE better than citocoline: hemorrhage
# Description: The derivative of 3,2′-spiro-pyrrolo-2-oxindole was investigated in conventionally effective dose of 10 mg/kg […] (iv)—dose that according to the results of our previous studies provided maximum antihypoxic activity of SI-86 compound. Reference drugs were injected intraperitoneally (ip). […] Autoblood was injected to rats with control pathology and 0.9% NaCI solution was administered as therapy calculated for 2 ml/kg ip.
# Psevdooperated rats were exposed to all interventions (anesthesia, craniotomy) with the exception of autoblood administration that leveled traumatic impact of experimental conditions.
# To determine neuron-specific enolase, the specific marker of cerebral ischemia,—for corresponding period (4 th and 21 st day of CVA) in rats, blood was sampled by sagittal sinus puncture (0.2-0.4 ml). NSE activity was measured by ELISA using a set NSE EIA KIT (DAI, USA) on the instrument of the company “Hipson” (Czech Republic).
# rats = test: Acute toxicity in rats; assay type: in vivo; conditions: for Effect (died/total): 2 weeks observation
# Description: (§1) The acute toxicity study was conducted when administered compounds SI-86 to rats into the stomach at doses of 3500 and 4000 mg/kg. Each dose was tested in 4 animals. The duration of observation of rats after administration of test compound was 2 weeks.
# Acute toxicity in rats = assay type: in vivo; conditions: rat, in vivo, oral; rats
# Description: as §1
# liver and pancrea cells = test: Pro/antiapoptosis properties, electrophoresis of DNA fragments; assay type: in vivo; conditions: intact male Wistar rats; 50 mg/kg
# Description: The assessment of pro/antiapoptotosis properties of substances was carried in intact male rats of Wistar line. The test substance were administered for 2 weeks by means of a probe in aqueous suspension containing Tween-80 at a dose of 50 mg/kg of body weight. The animals were euthanized by cervical vertebrae translocation 24 hours after the experiment. The identification of apoptosis of liver and pancrea cells was performed using electrophoretic method. […] Cell necrosis conditioned the “smeared” nature of DNA migration zone. The luminescence band of intact DNA was in the starting area.
# The expression of apoptosis manifestations was assessed by registration of DNA fragments via electrophoresis.
# [3] = test system: rat heart bioelectrical activity; test: Acute asphyxia, duration of heart bioelectrical activity; assay type: in vivo, rats
# Description: Acute asphyxia was modeled in rats anesthetized with propofol (60 mg/kg) intraperitoneally (ip) by complete clamping the trachea at electrocardiogram (EGC) registration. The antihypoxic effect was evaluated by duration of heart bioelectric activity (HBA). This model allows to estimate the heart sensitivity to hypoxia. An isoelectric ECG line for 1 minute considered as HBA termination, the pint of HBA termination corresponded to the last QRS complex on the ECG. The calculation of […] activity was performed by the above formula considering a point of last QRS complex registration as a lifetime.
# The preliminary screening of test substances was performed on ANHHH model. All derivatives were administered in the same dose of 10 mg/kg […] (iv) 1 hour prior to pathological state modeling. […] The effectiveness of a leader compound was evaluated at doses 5; 10 and 15 mg/kg iv. Mexydol was chosen as a reference drug having antihypoxic action in combination with antioxidant and membrane protective activity, which is successfully used in patients with CVA and IM. Mexydol was administered intraperitoneally (ip) at a dose of 100 mg/kg according to similar scheme.
# [4] = 12 h, SI-86 10 mg/kg iv, mexydol 100, citocoline 250, actovegin 16, pyracetam 400 mg/kg
smiles,measurement,setting,value
"CSCC[C@@H]1N[C@@]2(C(=O)Nc3ccccc32)[C@@H]2C(=O)N(c3ccc(C)cc3)C(=O)[C@H]12 [SI-86, 5′-(4-Methylphenyl)-3′-[2-(methylthio)ethyl]-3a′,6a′-dihydro-2′H-spiro[indole-3,1′-pyrrolo[3,4-c]pyrrol]-2,4′,6′(1H,3′H,5′H)-trione]","Lethality, %",[1]; [4],0/0%
same,"Lethality, abs.",[1]; [4],0/0%
same,"Lethality, abs.","[1]; 24 h, same doses",0/0%*^#
same,cerebroprotective protection,"[1]; 24 h observation, SI-86 10, mexydol 100, citicoline 250 mg/kg",100%
same,"Lethality, abs.","[1]; 48 h, same doses",0/0%*^#&•$
same,"Lethality, %","[1]; 72 h, same doses",5.9%
same,"Lethality, abs.","[1]; 72 h, same doses",2
same,"Lethality, %","[1]; 96 h, same doses",11.8%
same,"Lethality, abs.","[1]; 96 h, same doses",4
same,NSE activity (dynamics of neurodestructive changes),"[2]; day 4, SI-86 10 mg/kg iv, citocoline 250 mg/kg ip",1.065 ± 0.019*^#•
same,NSE activity (dynamics of neurodestructive changes),"[2]; day 21, same doses",0.260 ± 0.014*^#•
same,enzyme activity decreased in relation to the control pathology group,[2]; 96 hours,2.6 times
same,enzyme activity decreased in relation to the control pathology group,[2]; 21 days,3.6 times
same,efficiency in reducing NSE better than citocoline,[2]; acute period,17.6%
same,efficiency in reducing NSE better than citocoline,[2]; recovery period,15.9%
same,Effect (died/total),rats; 3500 mg/kg single administration,all animals survived and 0/4
same,rats died,rats; 4000 mg/kg,25%
same,Effect (died/total),rats; 4000 mg/kg single administration,1/4
same,toxicity class according to Hodge and Sterner classification,"rats; rat, in vivo",IV class of toxicity
same,LD50 at 2 weeks,Acute toxicity in rats,501 to 5000 mg/kg
same,level of apoptosis,liver and pancrea cells,closed to that of control group
same,Antihypoxic activity,[3]; 5 mg/kg iv,+12.1%
same,Duration of heart bioelectrical activity,[3]; 5 mg/kg iv,13.0 ± 1.5 min
same,Antihypoxic activity,[3]; 10 mg/kg iv,+5.8%
same,Duration of heart bioelectrical activity,[3]; 10 mg/kg iv,12.3 ± 1.4 min
same,Antihypoxic activity,[3]; 15 mg/kg iv,−2.8%
same,Duration of heart bioelectrical activity,[3]; 15 mg/kg iv,11.3 ± 1.0 min
